The subject of assay [1] is Streptococcus pneumoniae. The experiment in a line: Antibacterial activity against erythromycin-resistant Streptococcus pneumoniae AB11 encoded by erm and mef gene.
Assay [2] concerns Streptococcus pneumoniae. Description: Antibacterial activity against erythromycin-resistant Streptococcus pneumoniae A22072 encoded by mef gene.
Assay [3] relates to Streptococcus pneumoniae. Description: Antibacterial activity against erythromycin-susceptible Streptococcus pneumoniae ATCC 49619.
Assay [4] has as its system Streptococcus pneumoniae. Description: Antibacterial activity against erythromycin-resistant Streptococcus pneumoniae B1 encoded by erm gene.

In brackets after ≈: the same amount, converted by molar mass. Some results are limits rather than exact numbers.

As to `CCCNC(=O)O[C@H]1[C@H](C)O[C@@H](O[C@H]2[C@H](C)[C@@H](O[C@@H]3O[C@H](C)C[C@H](N(C)C)[C@H]3O)[C@@](C)(O)C[C@@H](C)CN(C)[C@H](C)[C@H]3OC(=O)O[C@]3(C)[C@@H](CC)OC(=O)[C@@H]2C)C[C@@]1(C)OC`, the MIC – broadly, the smallest concentration in the dilution series that meets the test's criterion for growth inhibition – came to 16 µg/mL (≈ 18.6 µM) against Streptococcus pneumoniae [1], 0.12 µg/mL (≈ 0.14 µM) in the assay with Streptococcus pneumoniae [2], 0.06 µg/mL (≈ 0.0698 µM) in the assay with Streptococcus pneumoniae [3] and 16 µg/mL (≈ 18.6 µM) against Streptococcus pneumoniae [4].

With `CCCCNC(=O)O[C@H]1[C@H](C)O[C@@H](O[C@H]2[C@H](C)[C@@H](O[C@@H]3O[C@H](C)C[C@H](N(C)C)[C@H]3O)[C@@](C)(O)C[C@@H](C)CN(C)[C@H](C)[C@H]3OC(=O)O[C@]3(C)[C@@H](CC)OC(=O)[C@@H]2C)C[C@@]1(C)OC`, the minimal inhibitory concentration (MIC) was found to be 16 µg/mL (≈ 18.3 µM) against Streptococcus pneumoniae [1], 1 µg/mL (≈ 1.14 µM) with Streptococcus pneumoniae [2], 0.12 µg/mL (≈ 0.137 µM) in the assay with Streptococcus pneumoniae [3] and 8 µg/mL (≈ 9.15 µM) in the assay with Streptococcus pneumoniae [4].

As to `CC[C@H]1OC(=O)[C@H](C)[C@@H](O[C@H]2C[C@@](C)(OC)[C@@H](OC(=O)NCCc3ccc(O)cc3)[C@H](C)O2)[C@H](C)[C@@H](O[C@@H]2O[C@H](C)C[C@H](N(C)C)[C@H]2O)[C@@](C)(O)C[C@@H](C)CN(C)[C@H](C)[C@@H](OC(=O)NCCc2ccccc2Cl)[C@]1(C)O`, the minimal inhibitory concentration (MIC) against Streptococcus pneumoniae [1] is 16 µg/mL (≈ 14.6 µM); in the assay on Streptococcus pneumoniae [2], 0.25 µg/mL (≈ 0.229 µM); with Streptococcus pneumoniae [3], below 0.03 µg/mL; against Streptococcus pneumoniae [4], 0.25 µg/mL (≈ 0.229 µM).

Take `C=CCNC(=O)O[C@H]1[C@H](C)O[C@@H](O[C@H]2[C@H](C)[C@@H](O[C@@H]3O[C@H](C)C[C@H](N(C)C)[C@H]3O)[C@@](C)(O)C[C@@H](C)CN(C)[C@H](C)[C@H]3OC(=O)O[C@]3(C)[C@@H](CC)OC(=O)[C@@H]2C)C[C@@]1(C)OC`: the minimal inhibitory concentration (MIC) against Streptococcus pneumoniae [1] was 128 µg/mL (≈ 149 µM); in the assay on Streptococcus pneumoniae [2], 1 µg/mL (≈ 1.17 µM); against Streptococcus pneumoniae [3], 0.12 µg/mL (≈ 0.14 µM); with Streptococcus pneumoniae [4] it was 64 µg/mL (≈ 74.6 µM).

As for `CCCCCNC(=O)O[C@H]1[C@H](C)O[C@@H](O[C@H]2[C@H](C)[C@@H](O[C@@H]3O[C@H](C)C[C@H](N(C)C)[C@H]3O)[C@@](C)(O)C[C@@H](C)CN(C)[C@H](C)[C@H]3OC(=O)O[C@]3(C)[C@@H](CC)OC(=O)[C@@H]2C)C[C@@]1(C)OC`, the MIC was 16 µg/mL (≈ 18 µM) with Streptococcus pneumoniae [1], 8 µg/mL (≈ 9.01 µM) against Streptococcus pneumoniae [2], 0.06 µg/mL (≈ 0.0676 µM) in the assay with Streptococcus pneumoniae [3] and 16 µg/mL (≈ 18 µM) against Streptococcus pneumoniae [4].

Regarding `CC[C@H]1OC(=O)[C@H](C)[C@@H](O[C@H]2C[C@@](C)(OC)[C@@H](OC(=O)NC(C)C)[C@H](C)O2)[C@H](C)[C@@H](O[C@@H]2O[C@H](C)C[C@H](N(C)C)[C@H]2O)[C@@](C)(O)C[C@@H](C)CN(C)[C@H](C)[C@H]2OC(=O)O[C@@]21C`, the minimum inhibitory concentration (MIC) against Streptococcus pneumoniae [1] came to 128 µg/mL (≈ 149 µM); in the assay on Streptococcus pneumoniae [2], 8 µg/mL (≈ 9.3 µM); with Streptococcus pneumoniae [3], 0.12 µg/mL (≈ 0.14 µM); in the assay with Streptococcus pneumoniae [4], 16 µg/mL (≈ 18.6 µM).

For `CC[C@H]1OC(=O)[C@H](C)[C@@H](O[C@H]2C[C@@](C)(OC)[C@@H](OC(=O)NC3CCCCC3)[C@H](C)O2)[C@H](C)[C@@H](O[C@@H]2O[C@H](C)C[C@H](N(C)C)[C@H]2O)[C@@](C)(O)C[C@@H](C)CN(C)[C@H](C)[C@H]2OC(=O)O[C@@]21C`, the minimal inhibitory concentration (MIC) was 32 µg/mL (≈ 35.5 µM) against Streptococcus pneumoniae [1], 2 µg/mL (≈ 2.22 µM) against Streptococcus pneumoniae [2], 0.06 µg/mL (≈ 0.0667 µM) against Streptococcus pneumoniae [3] and 16 µg/mL (≈ 17.8 µM) against Streptococcus pneumoniae [4].

Regarding `CCCCNC(=O)O[C@@H]1[C@@H](C)N(C)C[C@H](C)C[C@](C)(O)[C@H](O[C@@H]2O[C@H](C)C[C@H](N(C)C)[C@H]2O)[C@@H](C)[C@H](O[C@H]2C[C@@](C)(OC)[C@@H](OC(=O)NCCc3ccc(O)cc3)[C@H](C)O2)[C@@H](C)C(=O)O[C@H](CC)[C@@]1(C)O`, the MIC against Streptococcus pneumoniae [1] is 128 µg/mL (≈ 127 µM); in the assay with Streptococcus pneumoniae [2], 1 µg/mL (≈ 0.989 µM); in the assay on Streptococcus pneumoniae [3] it was below 0.03 µg/mL; against Streptococcus pneumoniae [4], 0.25 µg/mL (≈ 0.247 µM).

As for `CC[C@H]1OC(=O)[C@H](C)[C@@H](O[C@H]2C[C@@](C)(OC)[C@@H](OC(=O)NCCc3ccc(O)cc3)[C@H](C)O2)[C@H](C)[C@@H](O[C@@H]2O[C@H](C)C[C@H](N(C)C)[C@H]2O)[C@@](C)(O)C[C@@H](C)CN(C)[C@H](C)[C@@H](OC(=O)NCc2ccccc2)[C@]1(C)O`, the minimal inhibitory concentration (MIC) in the assay with Streptococcus pneumoniae [1] was 128 µg/mL (≈ 122 µM); with Streptococcus pneumoniae [2], 0.12 µg/mL (≈ 0.115 µM); against Streptococcus pneumoniae [3] it was below 0.03 µg/mL; with Streptococcus pneumoniae [4], 0.25 µg/mL (≈ 0.239 µM).
